The target in one test is T1, Androgen receptor W742L (Homo sapiens, UniProt P10275, W742L).
T1 construct: expressed in transfected cells; host or cells: A549, transduced, puromycin selected
T1 sequence (P10275 1-920 W742L): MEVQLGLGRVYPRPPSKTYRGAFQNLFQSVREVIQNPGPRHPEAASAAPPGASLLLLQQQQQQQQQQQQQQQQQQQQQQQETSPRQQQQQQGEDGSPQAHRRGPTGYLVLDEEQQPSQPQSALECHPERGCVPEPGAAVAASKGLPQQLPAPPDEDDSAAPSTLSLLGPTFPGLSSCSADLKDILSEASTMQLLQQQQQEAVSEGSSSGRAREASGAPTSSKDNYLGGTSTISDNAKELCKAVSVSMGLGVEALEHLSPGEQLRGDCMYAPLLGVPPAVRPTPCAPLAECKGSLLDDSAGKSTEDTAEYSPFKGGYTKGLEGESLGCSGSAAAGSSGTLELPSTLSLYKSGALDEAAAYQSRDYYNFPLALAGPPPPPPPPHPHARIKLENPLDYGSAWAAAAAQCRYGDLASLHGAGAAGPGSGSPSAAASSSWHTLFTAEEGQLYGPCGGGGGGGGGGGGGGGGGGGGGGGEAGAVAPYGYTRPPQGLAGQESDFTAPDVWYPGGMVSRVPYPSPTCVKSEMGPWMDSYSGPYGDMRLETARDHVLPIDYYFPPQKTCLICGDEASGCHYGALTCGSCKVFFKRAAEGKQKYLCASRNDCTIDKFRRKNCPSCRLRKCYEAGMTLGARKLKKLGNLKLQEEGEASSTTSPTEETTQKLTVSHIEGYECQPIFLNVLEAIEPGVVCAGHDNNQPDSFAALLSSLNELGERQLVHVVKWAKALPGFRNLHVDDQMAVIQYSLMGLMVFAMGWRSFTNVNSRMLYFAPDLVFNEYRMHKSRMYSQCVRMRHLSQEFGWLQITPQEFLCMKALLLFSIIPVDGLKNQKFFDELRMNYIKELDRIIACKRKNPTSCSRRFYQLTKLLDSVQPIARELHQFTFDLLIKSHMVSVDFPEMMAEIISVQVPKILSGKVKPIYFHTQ
The experiment in a line: Degradation of overexpressed Androgen Receptor in A549 cells (HiBiT), W742L. It is filed as cell-based. Particulars: A549 cells overexpressing AR W742L, cycloheximide, 24 hours. The procedure:
(§1) A549 cells were transduced to express wild type androgen receptor and Androgen receptor containing the following mutations (L702H, H875Y W742C W742L F877L, T878A and T878A/H875Y) with HiBiT tags. Transduced cells following puromycin selection were maintained in a humidified incubator (at 37° C. and 5% CO2 in the DMEM medium supplemented with 1% (v/v) Pen/Strep, 1% (v/v) Glutamax and 10% (v/v) FBS. A549 cells expressing each AR construct were detached from plate and counted. Cell suspensions at density 0.2 million per mL were prepared. Cell suspension was supplemented with 100 μg/mL of cycloheximide to block protein synthesis. Cells were preincubated with cycloheximide for 1 hr before seeding. Cells were seeded onto 384-well plate at density of 5,000 in 25 μL per well. A two fold serial dilution of test compounds, starting from 1 μM (row A) in 2-fold serial dilution series across the column using Tecan D300e dispenser. […]
(§2) Nano-Glo HiBiT Lytic reagent was prepared by adding LgBiT protein and Nano-Glo® substrate to lytic buffer pre-equilibrated at room temperature following manufacturer protocol (https://www.promega.co.uk/resources/protocols/technical-manuals/101/nanoglo-luciferase-assay-system-protocol). […] The plates were then centrifuged (100×G, 1 min) and incubated on shaker for 10 mins before taking readings on Pherastar Luminescence microplate reader. […]
A general note: With HiBiT, luminescence reflects the tagged protein that the partner subunit can reach.

The next test deals with T2, Androgen receptor F877L (Homo sapiens, UniProt P10275, F877L).
T2 construct: expressed in transfected cells; host or cells: A549, transduced, puromycin selected
T2 sequence (P10275 1-920 F877L): T1 sequence (P10275 1-920 W742L) with L742W, F877L
Briefly: Degradation of overexpressed Androgen Receptor in A549 cells (HiBiT), F877L. To be noted: A549 cells overexpressing AR F877L, cycloheximide, 24 hours. It is filed as cell-based. The procedure: as §1, §2

Structures are written as SMILES. Substitutions are numbered along the chain they refer to.

Regarding `COc1cc(O[C@H]2C(C)(C)[C@H](NC(=O)c3ccc(N4CCC(CN5CCC(n6ncc7c(N8CCC(=O)NC8=O)nccc76)CC5)CC4)c(F)c3)C2(C)C)ccc1C#N` [Example 20, N-((1r,3r)-3-(4-Cyano-3-methoxyphenoxy)-2,2,4,4-tetramethylcyclobutyl)-4-(4-((4-(4-(2,4-dioxotetrahydropyrimidin-1(2H)-yl)-1H-pyrazolo[4,3-c]pyridin-1-yl)piperidin-1-yl)methyl)piperidin-1-yl)-3-fluorobenzamide], the “Summary pXC50” value turned out to be 8.93 on Androgen receptor W742L and 8.84 at Androgen receptor F877L.

The values are drawn from US12577231B2, “Androgen receptor PROTACS” (GlaxoSmithKline Intellectual Property Development Limited, priority 2023, dated 2026).
